The source of these data is US9102621B2, “Acyl sulfonamide compounds” (Pfizer Limited, priority 2010, dated 2015).

Where a name gives a salt, the structure may show the parent alone. Some results are limits rather than exact numbers.

The target of this experiment is T1, Nav1.7 (or SCN9A) channel (Homo sapiens, UniProt Q15858).
T1 construct: expressed in transfected cells
T1 sequence (Q15858 whole entry): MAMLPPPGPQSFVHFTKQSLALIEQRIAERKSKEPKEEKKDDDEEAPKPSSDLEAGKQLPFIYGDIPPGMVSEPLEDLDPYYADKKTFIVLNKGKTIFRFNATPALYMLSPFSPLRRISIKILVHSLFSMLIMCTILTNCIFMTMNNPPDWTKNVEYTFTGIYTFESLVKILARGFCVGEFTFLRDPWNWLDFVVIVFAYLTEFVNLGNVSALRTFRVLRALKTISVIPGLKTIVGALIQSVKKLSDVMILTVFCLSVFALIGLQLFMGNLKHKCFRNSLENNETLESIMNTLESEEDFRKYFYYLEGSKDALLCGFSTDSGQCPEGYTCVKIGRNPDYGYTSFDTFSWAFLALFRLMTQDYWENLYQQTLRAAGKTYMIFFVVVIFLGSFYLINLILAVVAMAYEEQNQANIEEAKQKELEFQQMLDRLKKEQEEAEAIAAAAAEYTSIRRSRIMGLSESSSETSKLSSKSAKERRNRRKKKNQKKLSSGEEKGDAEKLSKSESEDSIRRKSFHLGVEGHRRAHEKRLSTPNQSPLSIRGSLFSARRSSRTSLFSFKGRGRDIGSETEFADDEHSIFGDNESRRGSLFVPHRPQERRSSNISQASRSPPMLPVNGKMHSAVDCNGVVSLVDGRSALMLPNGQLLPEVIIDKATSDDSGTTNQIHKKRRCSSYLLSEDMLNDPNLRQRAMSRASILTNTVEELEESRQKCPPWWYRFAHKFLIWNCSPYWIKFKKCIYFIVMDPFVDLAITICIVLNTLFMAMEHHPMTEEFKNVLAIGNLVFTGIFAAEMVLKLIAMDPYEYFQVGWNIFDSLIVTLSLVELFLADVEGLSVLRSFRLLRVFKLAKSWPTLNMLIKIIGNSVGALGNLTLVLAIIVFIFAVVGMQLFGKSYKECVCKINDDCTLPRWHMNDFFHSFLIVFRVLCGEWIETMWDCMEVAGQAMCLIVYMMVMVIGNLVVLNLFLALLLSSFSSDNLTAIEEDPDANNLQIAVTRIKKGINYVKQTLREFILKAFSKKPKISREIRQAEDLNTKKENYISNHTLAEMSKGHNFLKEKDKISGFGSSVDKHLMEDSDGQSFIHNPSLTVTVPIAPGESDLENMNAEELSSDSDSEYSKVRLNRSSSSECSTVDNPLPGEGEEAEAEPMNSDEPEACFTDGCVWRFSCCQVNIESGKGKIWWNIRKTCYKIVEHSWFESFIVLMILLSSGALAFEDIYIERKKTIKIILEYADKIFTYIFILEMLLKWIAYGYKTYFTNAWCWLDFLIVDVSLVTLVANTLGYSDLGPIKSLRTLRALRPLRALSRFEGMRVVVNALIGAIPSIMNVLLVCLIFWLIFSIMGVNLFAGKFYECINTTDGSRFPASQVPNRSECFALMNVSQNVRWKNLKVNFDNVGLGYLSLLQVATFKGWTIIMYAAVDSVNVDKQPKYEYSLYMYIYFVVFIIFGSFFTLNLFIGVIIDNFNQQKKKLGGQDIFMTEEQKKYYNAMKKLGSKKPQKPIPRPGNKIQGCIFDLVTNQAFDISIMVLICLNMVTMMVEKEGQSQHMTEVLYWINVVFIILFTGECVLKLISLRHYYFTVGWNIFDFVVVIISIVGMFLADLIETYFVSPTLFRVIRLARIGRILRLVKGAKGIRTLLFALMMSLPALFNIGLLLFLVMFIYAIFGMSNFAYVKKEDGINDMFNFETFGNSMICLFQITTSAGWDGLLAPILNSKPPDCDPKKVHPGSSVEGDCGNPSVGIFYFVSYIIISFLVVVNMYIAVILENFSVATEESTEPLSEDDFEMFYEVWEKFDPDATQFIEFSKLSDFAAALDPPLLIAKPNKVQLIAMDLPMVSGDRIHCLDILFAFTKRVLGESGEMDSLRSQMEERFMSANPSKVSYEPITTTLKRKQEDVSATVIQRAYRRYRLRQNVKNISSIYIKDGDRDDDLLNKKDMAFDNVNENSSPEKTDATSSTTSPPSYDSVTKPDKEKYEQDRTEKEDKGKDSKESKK
As to the kind of experiment: Nav1.7 (hSCN9A) channel block, PatchXpress whole-cell electrophysiology. The class given is cell-based. The note with it: PatchXpress platform; HEK cells stably transfected with hSCN9A; estimated IC-50 calculated from single point % inhibition at V1/2; read-out: Nav1.7 EIC50. As to the method:
The ability of the compounds of formula (I) to block the Nav1.7 (or SCN9A) channel were measured using the assay described below.
Human Embryonic Kidney (HEK) cells were transfected with an hSCN9A construct using lipofectamine reagent (Invitrogen), using standard techniques. Cells stably expressing the hSCN9A constructs were identified by their resistance to G-418 (400 μg/ml). Clones were screened for expression using the whole-cell voltage-clamp technique.
HEK cells stably transfected with hSCN9A were maintained in DMEM medium supplemented with 10% heat-inactivated fetal bovine serum and 400 μg/ml G-418 in an incubator at 37° C. with a humidified atmosphere of 10% CO2. For HTS, cells were harvested from flasks by trypsinization and replated in an appropriate multi-well plate (typically 96 or 384 wells/plate) such that confluence would be achieved within 24 hours of plating. For electrophysiological studies, cells were removed from the culture flask by brief trypsinization and re-plated at low density onto glass cover slips. Cells were typically used for electrophysiological experiments within 24 to 72 hours after plating.
Cover slips containing HEK cells expressing hSCN9A were placed in a bath on the stage of an inverted microscope and perfused (approximately 1 ml/minutes) with extracellular solution of the following composition: 138 mM NaCl, 2 mM CaCl2, 5.4 mM KCl, 1 mM MgCl2, 10 mM glucose, and 10 mM HEPES, pH 7.4, with NaOH. […] The osmolarity of the extracellular and intracellular solutions was 300 mOsm/kg and 295 mOsm/kg, respectively. All recordings were made at room temperature (22-24° C.) using AXOPATCH 200B amplifiers and PCLAMP software (Axon Instruments, Burlingame, Calif.).
hSCN9A currents in HEK cells were measured using the whole-cell configuration of the patch-clamp technique (Hamill et al., 1981). Uncompensated series resistance was typically 2 to 5 mega ohms and >85% series resistance compensation was routinely achieved. As a result, voltage errors were negligible and no correction was applied. Current records were acquired at 20 to 50 KHz and filtered at 5 to 10 KHz.
HEK cells stably transfected with hSCN9A were viewed under Hoffman contrast optics and placed in front of an array of flow pipes emitting either control or compound-containing extracellular solutions. All compounds were dissolved in dimethyl sulfoxide to make 10 mM stock solutions, which were then diluted into extracellular solution to attain the final concentrations desired. […] The voltage-dependence of inactivation was determined by applying a series of depolarizing prepulses (8 sec long in 10 mV increments) from a negative holding potential. The voltage was then immediately stepped to 0 mV to assess the magnitude of the sodium current. Currents elicited at 0 mV were plotted as a function of prepulse potential to allow estimation of the voltage at which 50% of the channels were inactivated (midpoint of inactivation or V1/2). Compounds were tested for their ability to inhibit hSCN9A sodium channels by activating the channel with a 20 msec voltage step to 0 mV following an 8 second conditioning prepulse to the empirically determined V1/2. Compound effect (% inhibition) was determined by difference in current amplitude before and after application of test compounds. […] Inhibition values <20% and >80% were excluded from the calculation.
Electrophysiological assays were conducted with PatchXpress 7000 hardware and associated software (Molecular Devices Corp). All assay buffers and solutions were identical to those used in conventional whole-cell voltage clamp experiments described above. hSCN9A cells were grown as above to 50%-80% confluency and harvested by trypsinization. Trypsinized cells were washed and resuspended in extracellular buffer at a concentration of 1×10^6 cells/ml. The onboard liquid handling facility of the PatchXpress was used for dispensing cells and application of test compounds. […]
As to `CC(Oc1ncc(OCc2cc(F)c(C(=O)NS(C)(=O)=O)cc2Cl)cc1Cl)C(F)(F)F` (stereo not shown) [Example 31, 5-Chloro-4-((5-chloro-6-(1,1,1-trifluoropropan-2-yloxy)pyridin-3-yloxy)methyl)-2-fluoro-N-(methylsulfonyl)benzamide], the IC50 is less than 100 nM.

Turning to `[2H]C([2H])([2H])C(Oc1ncc(OCc2cc(F)c(C(=O)NS(C)(=O)=O)cc2Cl)cc1Cl)(C([2H])([2H])[2H])C([2H])([2H])[2H]` [Example 32, 4-{[(6-d9-tert-Butoxy-5-chloropyridin-3-yl)oxy]methyl}-5-chloro-2-fluoro-N-(methylsulfonyl)benzamide], the IC50 was 11 nM.

Consider `COc1ncc(OCc2cc(F)c(C(=O)NS(C)(=O)=O)cc2Cl)cc1Cl` [Example 33, 5-Chloro-4-{[(5-chloro-6-methoxypyridin-3-yl)oxy]methyl}-2-fluoro-N-(methylsulfonyl)benzamide], for which the IC50 was 380 nM.

Take `[2H]C(C)(C)Oc1ncc(OCc2cc(F)c(C(=O)NS(C)(=O)=O)cc2Cl)cc1Cl` [Example 34, 5-Chloro-4-{[(5-chloro-6-d1-isopropoxypyridin-3-yl)oxy]methyl}-2-fluoro-N-(methylsulfonyl)benzamide]: the IC50 was 82.2 nM.

In the case of `CC(C)Oc1ncc(OCc2cc(F)c(C(=O)NS(C)(=O)=O)cc2Cl)cc1Cl` [Example 35, 5-Chloro-4-((5-chloro-6-isopropoxypyridin-3-yloxy)methyl)-2-fluoro-N-(methylsulfonyl)benzamide], the IC50 was 28 nM.

`CC(C)C(F)(F)c1ncc(OCc2cc(F)c(C(=O)NS(C)(=O)=O)cc2Cl)cc1Cl` [Example 36, 5-Chloro-4-({[5-chloro-6-(1,1-difluoro-2-methylpropyl)pyridin-3-yl]oxy}methyl)-2-fluoro-N-(methylsulfonyl)benzamide]: the IC50 is 52.7 nM.

As for `CS(=O)(=O)NC(=O)c1cc(Cl)c(COc2cnc(OCC(F)(F)C(F)F)c(Cl)c2)cc1F` [Example 37, 5-Chloro-4-({[5-chloro-6-(2,2,3,3-tetrafluoropropoxy)pyridin-3-yl]oxy}methyl)-2-fluoro-N-(methylsulfonyl)benzamide], the IC50 was 9.1 nM.

Take `CC(C)(C)c1ncc(OCc2cc(F)c(C(=O)NS(C)(=O)=O)cc2Cl)cc1Cl` [Example 38, 4-{[(6-tert-Butyl-5-chloropyridin-3-yl)oxy]methyl}-5-chloro-2-fluoro-N-(methylsulfonyl)benzamide]: the IC50 was 21.5 nM.

As to `[2H]C([2H])([2H])C([2H])(Oc1ncc(OCc2cc(F)c(C(=O)NS(C)(=O)=O)cc2Cl)cc1Cl)C([2H])([2H])[2H]` [Example 39, 5-Chloro-4-{[(5-chloro-6-d7-isopropoxypyridin-3-yl)oxy]methyl}-2-fluoro-N-(methylsulfonyl)benzamide], the IC50 is 39.9 nM.

Turning to `CS(=O)(=O)NC(=O)c1cc(Cl)c(COc2cnc(OC(F)F)c(Cl)c2)cc1F` [Example 41, 5-Chloro-4-({[5-chloro-6-(difluoromethoxy)pyridin-3-yl]oxy}methyl)-2-fluoro-N-(methylsulfonyl)benzamide], the IC50 is 62.3 nM.

As for `CS(=O)(=O)NC(=O)c1cc(Cl)c(COc2cnc(C3CC3)c(Cl)c2)cc1F` [Example 42, 5-Chloro-4-{[(5-chloro-6-cyclopropylpyridin-3-yl)oxy]methyl}-2-fluoro-N-(methylsulfonyl)benzamide], the IC50 is 51.8 nM.

As to `CS(=O)(=O)NC(=O)c1cc(Cl)c(COc2cnc(OCC(F)(F)F)c(Cl)c2)cc1F` [Example 43, 5-Chloro-4-({[5-chloro-6-(2,2,2-trifluoroethoxy)pyridin-3-yl]oxy}methyl)-2-fluoro-N-(methylsulfonyl)benzamide], the IC50 was 42.5 nM.

For the molecule `CS(=O)(=O)NC(=O)c1cc(Cl)c(COc2cnc(OCCC(F)(F)F)c(Cl)c2)cc1F` [Example 44, 5-Chloro-4-({[5-chloro-6-(3,3,3-trifluoropropoxy)pyridin-3-yl]oxy}methyl)-2-fluoro-N-(methylsulfonyl)benzamide], the IC50 was 25.8 nM.

In the case of `CC(C)(F)COc1ncc(OCc2cc(F)c(C(=O)NS(C)(=O)=O)cc2Cl)cc1Cl` [Example 45, 5-Chloro-4-({[5-chloro-6-(2-fluoro-2-methylpropoxy)pyridin-3-yl]oxy}methyl)-2-fluoro-N-(methylsulfonyl)benzamide], the IC50 is 58.2 nM.

As to `CS(=O)(=O)NC(=O)c1cc(Cl)c(COc2cnc(OCC(F)(F)C(F)(F)F)c(Cl)c2)cc1F` [Example 46, 5-Chloro-4-({[5-chloro-6-(2,2,3,3,3-pentafluoropropoxy)pyridin-3-yl]oxy}methyl)-2-fluoro-N-(methylsulfonyl)benzamide], the IC50 is 18 nM.

Consider `COc1cc(COc2cnc(OCC(C)C)c(Cl)c2)ccc1C(=O)NS(C)(=O)=O` [Example 47, 4-{[(5-Chloro-6-isobutoxypyridin-3-yl)oxy]methyl}-2-methoxy-N-(methylsulfonyl)benzamide], for which the IC50 was 4390 nM.

For `COc1cc(COc2cnc(OC(C)C)c(Cl)c2)ccc1C(=O)NS(C)(=O)=O` [Example 48, 4-{[(5-Chloro-6-isopropoxypyridin-3-yl)oxy]methyl}-2-methoxy-N-(methylsulfonyl)benzamide], the IC50 was greater than 3000 nM.

For the molecule `CC(C)(Oc1ncc(OCc2cc(F)c(C(=O)NS(C)(=O)=O)cc2F)cc1Cl)C(F)(F)F` [Example 49, 4-({[5-Chloro-6-(2,2,2-trifluoro-1,1-dimethylethoxy)pyridin-3-yl]oxy}methyl)-2,5-difluoro-N-(methylsulfonyl)benzamide], the IC50 is 9.7 nM.

On to `CC(C)c1ncc2ncc(COc3cc(F)c(C(=O)NS(C)(=O)=O)cc3Cl)cn12` [Example 50], for which the IC50 was greater than 3000 nM.

Turning to `COc1ncc(COc2ccc(C(=O)NS(C)(=O)=O)cc2Cl)cc1Cl` [Example 51], the IC50 is 6230 nM.

For `CS(=O)(=O)NC(=O)c1ccc(COc2cccc3cnccc23)cc1` [Example 52], the IC50 was greater than 3000 nM.

On to `CS(=O)(=O)NC(=O)c1ccc(COc2ccc3ccncc3c2)cc1` [Example 53], for which the IC50 was greater than 3000 nM.

With `CS(=O)(=O)NC(=O)c1cc(F)c(COc2cc(C(F)(F)F)c(Cl)cn2)cc1F` [Example 55, 4-({[5-Chloro-4-(trifluoromethyl)pyridin-2-yl]oxy}methyl)-2,5-difluoro-N-(methylsulfonyl)benzamide], the IC50 is greater than 1000 nM.

For `CS(=O)(=O)NC(=O)c1cc(F)c(COc2ccc(C(F)(F)F)cn2)cc1F` [Example 56, 2,5-Difluoro-N-(methylsulfonyl)-4-({[5-(trifluoromethyl)pyridin-2-yl]oxy}methyl)benzamide], the IC50 was 6720 nM.

Regarding `CS(=O)(=O)NC(=O)c1cc(Cl)c(COc2cnc(C3CC3)c(C3CC3)c2)cc1F` [Example 57, 5-Chloro-4-{[(5,6-dicyclopropylpyridin-3-yl)oxy]methyl}-2-fluoro-N-(methylsulfonyl)benzamide diethylamine salt.], the IC50 was 153 nM.

Turning to `CC(C)Oc1ncc(OCc2cc(F)c(C(=O)NS(C)(=O)=O)cc2Cl)cn1` [Example 58, 5-Chloro-2-fluoro-4-{[(2-isopropoxypyrimidin-5-yl)oxy]methyl}-N-(methylsulfonyl)benzamide], the IC50 is 6850 nM.

Turning to `CS(=O)(=O)NC(=O)c1cc(Cl)c(COc2cnc(C3CC3)c(OC(F)F)c2)cc1F` [Example 59, 5-Chloro-4-({[6-cyclopropyl-5-(difluoromethoxy)pyridin-3-yl]oxy}methyl)-2-fluoro-N-(methylsulfonyl)benzamide diethylamine salt], the IC50 was 356 nM.

With `CS(=O)(=O)NC(=O)c1cc(F)c(COc2ncc(Cl)cc2Cl)cc1F` [Example 60, 4-{[(3,5-dichloropyridin-2-yl)oxy]methyl}-2,5-difluoro-N-(methylsulfonyl)benzamide], the IC50 is greater than 3000 nM.
